The values below are quoted from earlier work in patent US20120316496A1, “USE OF COMPOSITIONS TO COAT CATHETER BALLOONS AND COATED CATHETER BALLOONS” (priority 2009, published 2012).

Structures are written as SMILES.

The conditions of the series: at 20° C.

`OCCO` [Ethylene glycol]: the vapor pressure (commonly the equilibrium pressure above the liquid or solid) was 5,3 Pa. Take `CCOC(C)=O` [Ethyl acetate]: the vapor pressure was 9700 Pa. For the compound `CC12CCC(CC1=O)C2(C)C` (stereo not shown) [Camphor], the vapor pressure is listed as 20 Pa. Regarding `C[S+](C)[O-]` [DMSO, dimethyl sulfoxide], the vapor pressure is 250 Pa.
